The source of these data is US11879012B2, “Method of modulating cell proliferation” (METRO NORTH HOSPITAL AND HEALTH SERVICE, priority 2018, dated 2024).

The test system of assay [1] is microvascular endothelial cells (MEC). Briefly: MTT assay, metabolic response of microvascular endothelial cells. The class given is cell-based. Here is the method:
(§1) Measurement of mitochondrial enzyme activity by MTT conversion was utilised as an indirect assessment of metabolic and proliferative activity. MTT reagent was prepared by diluting the MTT stock solution (5 mg/mL) 1:10 in PBS (i.e., to a final concentration of 0.5 mg/mL MTT). Prior optimization of growth conditions (seeding density and duration in culture) was conducted to ensure sub-confluency at the time of measurement. For example, a seeding density of 10,000 cells per cm^2 and a culture period of 48-hours were routinely used. On the day of analysis, the culture medium was removed from each well and replaced with a fixed volume (0.5 mL per well of a 24 well plate) of MTT solution and incubated at 37° C. for 40 minutes. The MTT reagent was subsequently removed and the formazan product eluted by adding a fixed volume (300 μL per well of a 24 well plate) of acidified isopropanol (24.6 μL of concentrated HCL in 20 mL of isopropanol) to each well for approximately 5 minutes, 150 μL of the eluted stain from each well was then transferred into corresponding wells of a 96 well plate. The optical density was measured using a plate reader at 550 nm (background 620 nm). Microvascular endothelial cells (MEC) were cultured in MEC Culture Medium comprising 500 mL of MCDB-131 media containing 5 mL of 1M L-Glutamine, 5 Penicillin (10,000 IU/mL)/Streptomycin (10,000 ug/mL), 10% v/v foetal calf serum (FCS), 0.5 mL of 1 mg/mL hydrocortisone (Hc) and 0.5 mL of 10 ug/mL epidermal growth factor (EGF). Spent culture media was removed and the flask rinsed with 5 mL of phosphate buffered saline (without magnesium or calcium; PBSA). After 30 seconds, the PBSA was removed and 5 mL of 0.02% EDTA/0.05% trypsin reagent was added to the cells. The flask was then incubated at 37° C. for 5-8 minutes. The cells were then dislodged from the flask, removed and added to a 50 mL centrifuge tube containing an equal volume of culture media to neutralize the 0.02% EDTA/0.05% trypsin reagent. This tube was then centrifuged at 100 g for 5 minutes to form a pellet of cells. The supernatant was removed and the pellet of cells resuspended. The diluted cells were split 1:3 into new flasks containing culture media. The flasks were then placed in a humidified CO2 (5%) incubator at 37° C. until the cells were approximately 80% confluent. The process was repeated weekly. For the purpose of serum-free culturing, the MEC and LEC cells were serum starved by incubating them in serum-free MCDB-131 medium (Gibco/Life Technologies) for 12 hours. Limbal epithelial cells (LEC) were cultured in a similar manner to MEC in LEC Culture Medium comprising 500 mL of DMEM/F12 media containing 5 mL of 1M L-Glutamine, 5 mL of Pen (10,000 IU/mL)/Strep (10,000 ug/mL) and 10% FCS (v/v). Additional reagents used in these experiments are described below: • 0.02% EDTA/0.05% trypsin reagent: 5 mL of 2% EDTA solution and 10 mL of thawed 2.5% trypsin solution were added to 485 mL of PBSA, 50 mL aliquots were dispensed into 50 mL centrifuge tubes and stored below −20° C. • Pre-bound Collagen IV: 250 μL of Collagen IV stock solution was added to the wells of a 24 well tissue culture plate and allowed to dry completely over night in a biohazard cabinet. • Pre-bound Vitronectin: a vitronectin stock solution (2 mg/mL) was diluted in water to a final concentration of 5 μg/mL. […]

For assay [2], the system named is limbal epithelial cells (LEC). The experiment in a line: MTT assay, metabolic response of limbal epithelial cells. As to conditions: FIG. 8. The class given is cell-based. Here is the method: as §1, with “nm).” for “nm). Microvascular endothelial cells (MEC) were cultured in MEC Culture Medium comprising 500 mL of MCDB-131 media containing 5 mL of 1M L-Glutamine, 5 Penicillin (10,000 IU/mL)/Streptomycin (10,000 ug/mL), 10% v/v foetal calf serum (FCS), 0.5 mL of 1 mg/mL hydrocortisone (Hc) and 0.5 mL of 10 ug/mL epidermal growth factor (EGF).”, “(v/v).” for “(v/v). Additional reagents used in these experiments are described below: • 0.02% EDTA/0.05% trypsin reagent: 5 mL of 2% EDTA solution and 10 mL of thawed 2.5% trypsin solution were added to 485 mL of PBSA, 50 mL aliquots were dispensed into 50 mL centrifuge tubes and stored below −20° C. • Pre-bound Collagen IV: 250 μL of Collagen IV stock solution was added to the wells of a 24 well tissue culture plate and allowed to dry completely over night in a biohazard cabinet. • Pre-bound Vitronectin: a vitronectin stock solution (2 mg/mL) was diluted in water to a final concentration of 5 μg/mL.”
(In general: Tetrazolium dyes change colour on reduction, which living cells bring about.)

The mark [3] stands for this setting: agent alone, serum-starved cells, 2 days, glucose 10 mg/mL, thrombin 100 IU/mL, FIG. 7.
[4] abbreviates: agent alone, serum-starved cells, 2 days, glucose 10 mg/mL, thrombin 100 IU/mL.

For thrombin, the “proliferation of MEC” value in assay [1] (100 IU/mL thrombin with glucose, FIG. 7) is recorded as “stimulated proliferation of MEC in synergy with glucose, exceeding the positive control”; in assay [1] (setting [3]), “did not significantly stimulate proliferation of endothelium”. The “proliferation of LEC” value in assay [2] (setting [4]) and in assay [2] (glucose with thrombin) was “did not significantly stimulate proliferation” in each case.

Take anti-thrombin III: the “proliferation of MEC” value in assay [1] (ATIII 10 IU/mL in the presence of thrombin (+glucose) and pre-bound PSGL-1, FIG. 9) is on record as “stimulated the proliferation of MEC”.

B1: vitronectin: pre-bound basement membrane protein (protein, UniProt P04004 20-478, looked up)
Vitronectin: DQESCKGRCTEGFNVDKKCQCDELCSYYQSCCTDYTAECKPQVTRGDVFTMPEDEYTVYDDGEEKNNATVHEQVGGPSLTSDLQAQSKGNPEQTPVLKPEEEAPAPEVGASKPEGIDSRPETLHPGRPQPPAEEELCSGKPFDAFTDLKNGSLFAFRGQYCYELDEKAVRPGYPKLIRDVWGIEGPIDAAFTRINCQGKTYLFKGSQYWRFEDGVLDPDYPRNISDGFDGIPDNVDAALALPAHSYSGRERVYFFKGKQYWEYQFQHQPSQEECEGSSLSAVFEHFAMMQRDSWEDIFELLFWGRTSAGTRQPQFISRDWHGVPGQVDAAMAGRIYISGMAPRPSLAKKQRFRHRNRKGYRSQRGHSRGRNQNSRRPSRATWLSLFSSEESNLGANNYDDYRMDWLVPATCEPIQSVFFFSGDKYYRVNLRTRRVDTVDPPYPRSIAQYWLGCPAPGHL
Consider B1, for which, in assay [1] (setting [3]), the “proliferation of MEC” value is “did not significantly stimulate proliferation of endothelium”. In addition, the “proliferation of LEC” value in assay [2] (setting [4]) was “did not significantly stimulate proliferation”.

B2: P-selectin: pre-bound recombinant human P-selectin (protein, UniProt P16109 42-830, looked up)
P-selectin: WTYHYSTKAYSWNISRKYCQNRYTDLVAIQNKNEIDYLNKVLPYYSSYYWIGIRKNNKTWTWVGTKKALTNEAENWADNEPNNKRNNEDCVEIYIKSPSAPGKWNDEHCLKKKHALCYTASCQDMSCSKQGECLETIGNYTCSCYPGFYGPECEYVRECGELELPQHVLMNCSHPLGNFSFNSQCSFHCTDGYQVNGPSKLECLASGIWTNKPPQCLAAQCPPLKIPERGNMTCLHSAKAFQHQSSCSFSCEEGFALVGPEVVQCTASGVWTAPAPVCKAVQCQHLEAPSEGTMDCVHPLTAFAYGSSCKFECQPGYRVRGLDMLRCIDSGHWSAPLPTCEAISCEPLESPVHGSMDCSPSLRAFQYDTNCSFRCAEGFMLRGADIVRCDNLGQWTAPAPVCQALQCQDLPVPNEARVNCSHPFGAFRYQSVCSFTCNEGLLLVGASVLQCLATGNWNSVPPECQAIPCTPLLSPQNGTMTCVQPLGSSSYKSTCQFICDEGYSLSGPERLDCTRSGRWTDSPPMCEAIKCPELFAPEQGSLDCSDTRGEFNVGSTCHFSCDNGFKLEGPNNVECTTSGRWSATPPTCKGIASLPTPGVQCPALTTPGQGTMYCRHHPGTFGFNTTCYFGCNAGFTLIGDSTLSCRPSGQWTAVTPACRAVKCSELHVNKPIAMNCSNLWGNFSYGSICSFHCLEGQLLNGSAQTACQENGHWSTTVPTCQAGPLTIQEALTYFGGAVASTIGLIMGGTLLALLRKRFRQKDDGKCPLNPHSHLGTYGVFTNAAFDPSP
As for B2, in assay [1] (pre-bound, in the presence of glucose, absence of collagen IV and vitronectin, FIG. 7), the “thrombin-induced proliferation of MEC” value was “reduced the thrombin-induced proliferation of MEC”.

B3: PSGL-1: pre-bound selectin receptor, P-selectin glycoprotein ligand-1 (protein, UniProt Q14242 42-412, looked up)
P-selectin glycoprotein …: QATEYEYLDYDFLPETEPPEMLRNSTDTTPLTGPGTPESTTVEPAARRSTGLDAGGAVTELTTELANMGNLSTDSAAMEIQTTQPAATEAQTTQPVPTEAQTTPLAATEAQTTRLTATEAQTTPLAATEAQTTPPAATEAQTTQPTGLEAQTTAPAAMEAQTTAPAAMEAQTTPPAAMEAQTTQTTAMEAQTTAPEATEAQTTQPTATEAQTTPLAAMEALSTEPSATEALSMEPTTKRGLFIPFSVSSVTHKGIPMAASNLSVNYPVGAPDHISVKQCLLAILILALVATIFFVCTVVLAVRLSRKGHMYPVRNYSPTEMVCISSLLPDGGEGPSATANGGLSKAKSPGLTPEPREDREGDDLTLHSFLP
For B3, the “thrombin induced proliferation of LEC” value in assay [2] (pre-bound, in the presence of glucose) is recorded as “stimulated thrombin induced proliferation of LEC”.
